Experimental data: ChEMBL document CHEMBL1255477, “In vitro properties of BAL30072, a novel siderophore sulfactam with activity against multiresistant gram-negative bacilli” (Antimicrob Agents Chemother, 2010)
Values after ≈ are worked out from the molar mass of the structure shown. Active and inactive are the calls of the source. The rule behind the calls is not given here.

Assays:
Format in all cases: functional
[1] = system: Klebsiella pneumoniae; test: Antimicrobial activity against Klebsiella pneumoniae by broth dilution method
[2] = system: Escherichia coli; test: Antimicrobial activity against Escherichia coli by broth dilution method
[3] = system: Proteus penneri; test: Antimicrobial activity against Proteus penneri by broth dilution method
[4] = system: Proteus vulgaris; test: Antimicrobial activity against Proteus vulgaris by broth dilution method
[5] = system: Stenotrophomonas maltophilia; test: Antimicrobial activity against Stenotrophomonas maltophilia by broth dilution method
[6] = system: Acinetobacter junii; test: Antimicrobial activity against Acinetobacter junii 15218 assessed as number of passages required for MIC to rise above 4 times original MIC
[7] = system: Pseudomonas aeruginosa; test: Antimicrobial activity against Pseudomonas aeruginosa 527 assessed as number of passages required for MIC to rise above 4 times original MIC
[8] = system: Serratia marcescens; test: Antimicrobial activity against Serratia marcescens by broth dilution method
[9] = system: Acinetobacter baumannii; test: Antimicrobial activity against Acinetobacter baumannii HPA74510 assessed as number of passages required for MIC to rise above 4 times original MIC
[10] = system: Citrobacter freundii; test: Antimicrobial activity against Citrobacter freundii by broth dilution method
[11] = system: Klebsiella pneumoniae; test: Antimicrobial activity against Klebsiella pneumoniae 1338665 assessed as number of passages required for MIC to rise above 4 times original MIC
[12] = system: Stenotrophomonas maltophilia; test: Antimicrobial activity against Stenotrophomonas maltophilia 1AC736 assessed as number of passages required for MIC to rise above 4 times original MIC
[13] = system: Pseudomonas aeruginosa; test: Antimicrobial activity against Pseudomonas aeruginosa by broth dilution method
[14] = system: Providencia stuartii; test: Antimicrobial activity against Providencia stuartii by broth dilution method
[15] = system: Enterobacteriaceae; test: Antimicrobial activity against Enterobacteriaceae by broth dilution method
[16] = system: Providencia rettgeri; test: Antimicrobial activity against Providencia rettgeri by broth dilution method
[17] = system: Klebsiella oxytoca; test: Antimicrobial activity against Klebsiella oxytoca by broth dilution method
[18] = system: Klebsiella aerogenes; test: Antimicrobial activity against Enterobacter aerogenes by broth dilution method
[19] = system: Burkholderia sp.; test: Antimicrobial activity against Burkholderia sp. by broth dilution method
[20] = system: Proteus mirabilis; test: Antimicrobial activity against Proteus mirabilis by broth dilution method
[21] = system: Acinetobacter sp.; test: Antimicrobial activity against Acinetobacter sp. by broth dilution method
[22] = system: Pseudomonas aeruginosa; test: Antimicrobial activity against Pseudomonas aeruginosa BA assessed as number of passages required for MIC to rise above 4 times original MIC

## CO/N=C(\C(=O)N[C@@H]1C(=O)N2C(C(=O)[O-])=C(C[N+]3(C)CCCC3)CS[C@H]12)c1csc(N)n1
[1]
  MIC50: 4 µg/mL (≈ 8.32 µM)
  MIC90: > 32 µg/mL
[2]
  MIC50: 8 µg/mL (≈ 16.6 µM)
  MIC90: > 32 µg/mL
[3]
  MIC50: 0.125 µg/mL (≈ 0.26 µM)
  MIC90: 1 µg/mL (≈ 2.08 µM)
[4]
  MIC50: 0.125 µg/mL (≈ 0.26 µM)
  MIC90: 1 µg/mL (≈ 2.08 µM)
[5]
  MIC50: 16 µg/mL (≈ 33.3 µM)
  MIC90: > 32 µg/mL
[6]
  Activity: 14 passages
[7]
  Activity: 1 passages
[8]
  MIC50: 1 µg/mL (≈ 2.08 µM)
  MIC90: 2 µg/mL (≈ 4.16 µM)
[9]
  Activity: inactive
[10]
  MIC50: 1 µg/mL (≈ 2.08 µM)
  MIC90: 4 µg/mL (≈ 8.32 µM)
[11]
  Activity: inactive
[12]
  Activity: 1 passages
[13]
  MIC50: 16 µg/mL (≈ 33.3 µM)
  MIC90: 32 µg/mL (≈ 66.6 µM)
[14]
  MIC50: ≤ 0.06 µg/mL
  MIC90: > 32 µg/mL
[15]
  MIC50: 4 µg/mL (≈ 8.32 µM)
[16]
  MIC50: ≤ 0.06 µg/mL
  MIC90: > 32 µg/mL
[17]
  MIC50: 2 µg/mL (≈ 4.16 µM)
  MIC90: 4 µg/mL (≈ 8.32 µM)
[18]
  MIC90: 16 µg/mL (≈ 33.3 µM)
[19]
  MIC50: 8 µg/mL (≈ 16.6 µM)
  MIC90: 16 µg/mL (≈ 33.3 µM)
[20]
  MIC50: 0.125 µg/mL (≈ 0.26 µM)
  MIC90: 1 µg/mL (≈ 2.08 µM)
[21]
  MIC50: 32 µg/mL (≈ 66.6 µM)
  MIC90: > 32 µg/mL
[22]
  Activity: 2 passages
